{"source": "patent US9205064B2", "about": "“Methods for the diagnosis of oncological disorders using epimetabolic shifters, multidimensional intracellular molecules, or environmental influencers” (Berg LLC, priority 2009, dated 2015)", "format_in_all_cases": "cell-based", "key": {"[1]": {"system": "MCF-7 breast cancer cells", "experiment": "SeaHorse XF analyzer OCR and ECAR", "details": "absence and presence of stressors", "excerpt": "Environmental influencers (e.g., MIMs or Epi-shifters) may also be identified by changes in cellular energetics. One example of the measurement of cellular energetics are the real-time measures of the consumption of molecular oxygen and/or the change in pH of the media of a cell culture. For example, the ability of a potential epi-shifter to modulate the metabolic state of a cell may be analyzed using, for example, the XF24 Analyzer (Seahorse, Inc.). This technology allows for real time detection of oxygen and pH changes in a monolayer of cells in order to evaluate the bioenergetics of a cell microenvironment. The XF24 Analyzer measures and compares the rates of oxygen consumption (OCR), which is a measure of aerobic metabolism, and extracellular acidification (ECAR), which is a measure of glycolysis, both key indicators of cellular energetics.\n(SeaHorse Biosciences Inc, North Billerica, Mass.).\nIn contrast, cancer cells (e.g., MCF-7, PaCa-2) are inherently primed to culture at higher levels of glucose compared to normal cells due to their glycolytic phenotype for maintenance in culture."}, "[2]": {"system": "oncogenic and normal cell lines", "experiment": "Minimal CoQ10 concentration and treatment time for induction of early apoptosis (Bcl-2, caspase activation, annexin V)", "description": "CoQ10 treatment of cells was carried out as described in detail below in the Materials and Methods. Induction of apoptosis was assessed in the treated cells by monitoring indicators of early apoptosis (e.g., Bcl-2 expression, caspase activation and by using annexin V assays) as described below. From these studies, the minimal CoQ10 dosage, e.g., concentration of CoQ10 and time of treatment, required to induce apoptosis in the panel of cell lines was determined.\nCells were cultured in T-75 flasks with relevant medium supplemented with 10% Fetal Bovine Serum (FBS), 1% PSA (penicillin, streptomycin, amphotericin B) (Invitrogen and Cellgro) in a 37° C. incubator with 5% CO2 levels until 70-80% confluence was reached. To harvest cells for treatment, flasks were primed with 1 mL Trypsin, aspirated, trypsinized with an additional 3 mL, and incubated at 37° C. for 3-5 minutes. Cells were then neutralized with an equal volμme of media and the subsequent solution was centrifuged at 10,000 rpm for 8 minutes. The supernatant was aspirated and the cells were resuspended with 8.5 ml of media. A mixture of 500 ul of the resuspension and 9.5 ml of […] was read twice by a coulter counter and the appropriate number of cells to be seeded into each dish was determined Control and concentration ranging from 0-200 μM groups were examined in triplicate. From a 500 μM CoQ-10 stock solution, serial dilutions were performed to achieve desired experimental concentration in appropriate dishes. Dishes were incubated in a 37° C. incubator with 5% CO2 levels for 0-72 hours depending on cell type and experimental protocol.\nFollowing cell treatment incubation period was complete, protein isolation was performed. Dishes of all treatment groups were washed twice with 2 ml, and once with 1 ml of ice cold 1× Phosphate Buffered Saline (PBS). The PBS was aspirated from the dishes after the initial 2 washes only. Cells were gently scraped and collected into microcentrifuge tubes using the final volume from the third wash and centrifuged at 10,000 rpm for 10 minutes. After centrifugation, the supernatant was aspirated and the pellet was lysed with 50 uL of lysis buffer (1 uL of protease and phosphotase inhibitor for every 100 uL of lysis buffer). Samples were then frozen overnight at −20° C.\nAfter the cell treatment incubation period was complete, protein isolation was performed. Flasks of all treatment groups were washed twice with 5 mL, and once with 3 mL of ice cold 1×PBS. The PBS was aspirated from the flasks after the first 2 washes only. Cells were gently scraped and collected into 15 mL centrifuge tubes using the final volume from the third wash and centrifuged for at 10,000 rpm for 10 minutes. After centrifugation, the supernatant was aspirated and the pellet was lysed with an appropriate amount of lysis buffer (1 uL of protease and phosphotase inhibitor for every 100 uL of lysis buffer). Lysis buffer volume was dependent on pellet size. Samples were transferred in microcentrifuge tubes and frozen overnight at −20° C.\nSamples were thawed at […] and sonicated to ensure homogenization the day following protein isolation. Protein quantification was performed using the micro BCA protein assay kit (Pierce). To prepare samples for Immuno-blotting, a 1:19 solution of betamercaptoethanol (Sigma) to sample buffer (Bio-Rad) was prepared. Samples were diluted 1:1 with the betamercaptoethanol-sample buffer solution, boiled at 95° C. for 5 minutes, and frozen overnight at −20° C.\nThe volume of sample to load per well was determined using the raw mean concentration of protein obtained from the BCA protein assay. Approximately 30-60 μg of protein were loaded for each treatment time point. Proteins were run in triplicate on 12% Tris-HCl ready gels (Bio-Rad) or hand cast gels in 1× running buffer at 85 and 100 volts. Proteins were then transferred onto nitrocellulose paper for an hour at 100 volts, and blocked for another hour in a 5% milk solution. […]"}, "SCC cells": {"system": "SCC cells", "experiment": "2-D gel electrophoresis proteomic analysis with mass spectrometry identification", "details": "100 μM Q10, 24 hr", "excerpt": "The gels were run in duplicate."}}}
{"compound": "COC1=C(OC)C(=O)C(C/C=C(\\C)CC/C=C(\\C)CC/C=C(\\C)CC/C=C(\\C)CC/C=C(\\C)CC/C=C(\\C)CC/C=C(\\C)CC/C=C(\\C)CC/C=C(\\C)CCC=C(C)C)=C(C)C1=O", "note": "[Q10, Coenzyme Q10]", "values": [{"measurement": "OCR values", "setting": "[1]", "value": "consistent reduction"}, {"measurement": "Indication of Early apoptosis (Bcl-2, annexin V, or caspase activation)", "setting": "[2]; BONE: Ewing's sarcoma (NCI)", "value": "Extremely strong"}, {"measurement": "Minimal CoQ10 Concentration for early apoptosis", "setting": "[2]; BONE: Ewing's sarcoma (NCI)", "value": 5, "unit": "µM"}, {"measurement": "Minimal treatment Time for early apoptosis", "setting": "[2]; BONE: Ewing's sarcoma (NCI)", "value": 1, "unit": "h"}, {"measurement": "Indication of Early apoptosis (Bcl-2, annexin V, or caspase activation)", "setting": "[2]; BONE: Osteosarcoma (143b)", "value": "Very Strong"}, {"measurement": "Minimal CoQ10 Concentration for early apoptosis", "setting": "[2]; BONE: Osteosarcoma (143b)", "value": 50, "unit": "µM"}, {"measurement": "Minimal treatment Time for early apoptosis", "setting": "[2]; BONE: Osteosarcoma (143b)", "value": 48, "unit": "h"}, {"measurement": "Indication of Early apoptosis (Bcl-2, annexin V, or caspase activation)", "setting": "[2]; BREAST: BT-20", "value": "Strong"}, {"measurement": "Minimal CoQ10 Concentration for early apoptosis", "setting": "[2]; BREAST: BT-20", "value": 100, "unit": "µM"}, {"measurement": "Minimal treatment Time for early apoptosis", "setting": "[2]; BREAST: BT-20", "value": 48, "unit": "h"}, {"measurement": "Indication of Early apoptosis (Bcl-2, annexin V, or caspase activation)", "setting": "[2]; BREAST: MCF-7", "value": "Strong"}, {"measurement": "Minimal CoQ10 Concentration for early apoptosis", "setting": "[2]; BREAST: MCF-7", "value": 50, "unit": "µM"}, {"measurement": "Minimal treatment Time for early apoptosis", "setting": "[2]; BREAST: MCF-7", "value": 48, "unit": "h"}, {"measurement": "Indication of Early apoptosis (Bcl-2, annexin V, or caspase activation)", "setting": "[2]; BREAST: MDA MB 468", "value": "Strong"}, {"measurement": "Minimal CoQ10 Concentration for early apoptosis", "setting": "[2]; BREAST: MDA MB 468", "value": 100, "unit": "µM"}, {"measurement": "Minimal treatment Time for early apoptosis", "setting": "[2]; BREAST: MDA MB 468", "value": 48, "unit": "h"}, {"measurement": "Indication of Early apoptosis (Bcl-2, annexin V, or caspase activation)", "setting": "[2]; BREAST: SkBr-3", "value": "Very Strong"}, {"measurement": "Minimal CoQ10 Concentration for early apoptosis", "setting": "[2]; BREAST: SkBr-3", "value": 50, "unit": "µM"}, {"measurement": "Minimal treatment Time for early apoptosis", "setting": "[2]; BREAST: SkBr-3", "value": 24, "unit": "h"}, {"measurement": "Indication of Early apoptosis (Bcl-2, annexin V, or caspase activation)", "setting": "[2]; BREAST: ZR-75", "value": "Slight"}, {"measurement": "Minimal CoQ10 Concentration for early apoptosis", "setting": "[2]; BREAST: ZR-75", "value": 200, "unit": "µM"}, {"measurement": "Minimal treatment Time for early apoptosis", "setting": "[2]; BREAST: ZR-75", "value": 72, "unit": "h"}, {"measurement": "Indication of Early apoptosis (Bcl-2, annexin V, or caspase activation)", "setting": "[2]; Fibroblasts (nFib)", "value": "None"}, {"measurement": "Indication of Early apoptosis (Bcl-2, annexin V, or caspase activation)", "setting": "[2]; Heart: Aortic smooth muscle (HASMC)", "value": "None"}, {"measurement": "Indication of Early apoptosis (Bcl-2, annexin V, or caspase activation)", "setting": "[2]; Keratinocytes (Heka, Hekn)", "value": "None"}, {"measurement": "Indication of Early apoptosis (Bcl-2, annexin V, or caspase activation)", "setting": "[2]; LIVER: Hep3B", "value": "Very Strong"}, {"measurement": "Minimal CoQ10 Concentration for early apoptosis", "setting": "[2]; LIVER: Hep3B", "value": 50, "unit": "µM"}, {"measurement": "Minimal treatment Time for early apoptosis", "setting": "[2]; LIVER: Hep3B", "value": 24, "unit": "h"}, {"measurement": "Indication of Early apoptosis (Bcl-2, annexin V, or caspase activation)", "setting": "[2]; LIVER: HepG2", "value": "Very Strong"}, {"measurement": "Minimal CoQ10 Concentration for early apoptosis", "setting": "[2]; LIVER: HepG2", "value": 50, "unit": "µM"}, {"measurement": "Minimal treatment Time for early apoptosis", "setting": "[2]; LIVER: HepG2", "value": 24, "unit": "h"}, {"measurement": "Indication of Early apoptosis (Bcl-2, annexin V, or caspase activation)", "setting": "[2]; Mammary fiboblasts: 184A1 and 184B5", "value": "None"}, {"measurement": "Indication of Early apoptosis (Bcl-2, annexin V, or caspase activation)", "setting": "[2]; Melanocytes (Hema, LP)", "value": "None"}, {"measurement": "Indication of Early apoptosis (Bcl-2, annexin V, or caspase activation)", "setting": "[2]; Melanoma (Skmel 2)", "value": "Very Strong"}, {"measurement": "Minimal CoQ10 Concentration for early apoptosis", "setting": "[2]; Melanoma (Skmel 2)", "value": 25, "unit": "µM"}, {"measurement": "Minimal treatment Time for early apoptosis", "setting": "[2]; Melanoma (Skmel 2)", "value": 24, "unit": "h"}, {"measurement": "Indication of Early apoptosis (Bcl-2, annexin V, or caspase activation)", "setting": "[2]; Melanoma (Skmel 28)", "value": "Strong"}, {"measurement": "Minimal CoQ10 Concentration for early apoptosis", "setting": "[2]; Melanoma (Skmel 28)", "value": 20, "unit": "µM"}, {"measurement": "Minimal treatment Time for early apoptosis", "setting": "[2]; Melanoma (Skmel 28)", "value": 24, "unit": "h"}, {"measurement": "Indication of Early apoptosis (Bcl-2, annexin V, or caspase activation)", "setting": "[2]; PANCREAS: PaCa2", "value": "Very Strong"}, {"measurement": "Minimal CoQ10 Concentration for early apoptosis", "setting": "[2]; PANCREAS: PaCa2", "value": 25, "unit": "µM"}, {"measurement": "Minimal treatment Time for early apoptosis", "setting": "[2]; PANCREAS: PaCa2", "value": 24, "unit": "h"}, {"measurement": "Indication of Early apoptosis (Bcl-2, annexin V, or caspase activation)", "setting": "[2]; PROSTATE: PC3", "value": "Very Strong"}, {"measurement": "Minimal CoQ10 Concentration for early apoptosis", "setting": "[2]; PROSTATE: PC3", "value": 25, "unit": "µM"}, {"measurement": "Minimal treatment Time for early apoptosis", "setting": "[2]; PROSTATE: PC3", "value": 24, "unit": "h"}, {"measurement": "Indication of Early apoptosis (Bcl-2, annexin V, or caspase activation)", "setting": "[2]; SCC, Squamous cell carcinoma", "value": "Very Strong"}, {"measurement": "Minimal CoQ10 Concentration for early apoptosis", "setting": "[2]; SCC, Squamous cell carcinoma", "value": 25, "unit": "µM"}, {"measurement": "Minimal treatment Time for early apoptosis", "setting": "[2]; SCC, Squamous cell carcinoma", "value": 24, "unit": "h"}, {"measurement": "effect on normal cells, including keratinocytes and dermal fibroblasts", "setting": "[2]; normal tissue environment", "value": "increased proliferation and migration"}, {"measurement": "efficacy of treatment (induction of apoptosis) across cell types", "setting": "[2]; panel of oncogenic and normal cell lines", "value": "greater in cell types that exhibited increased oncogenicity and/or greater metastatic potential"}, {"measurement": "HSP 70, spot 116: Response (further)", "setting": "SCC cells", "value": "decrease at 24 hr"}, {"measurement": "NM23 protein (NME1), spot 54: Response", "setting": "SCC cells", "value": "decrease at 24 hr"}]}
